Results published in patent US20090221522A1, “METHODS TO CORRECT GENE SET EXPRESSION PROFILES TO DRUG SENSITIVITY” (The Johns Hopkins University, priority 2008, published 2009).

Test system: direct pancreatic cancer xenografts (fine needle aspiration cells)
Assay: Ex vivo perturbability assay, low-density microarray RT-PCR
Assay type: cell-based
Parameters: key to RRM1 gene expression / NFKB1 gene expression / BNIP3L gene expression / VHL gene expression / DCK gene expression / HIF1B gene expression / IGF1R gene expression / MAPK1 gene expression / MAP2K2 gene expression / JUN gene expression / IHH gene expression: % of untreated control (treated sample normalized to untreated)
Conditions: treated normalized to untreated control
Description: Direct pancreatic cancer derived xenografts: Resected pancreatic adenocarcinomas are routinely implanted in nude mice at the Johns Hopkins Medical Institutions as a method to obtain enriched populations of neoplastic cells under an IRB-approved protocol from residual pancreatic cancer tumors. Tumor specimens from Whipple resection specimens were divided into 2-3 mm^3 pieces in antibiotic-containing RPMI media. Pieces of non-necrotic tissue were selected and immersed in Matrigel. Under anesthesia with isofluorane, tumors were implanted into five-to-six week-old female athymic (nu/nu) mice purchased from Harlan (Harlan Laboratories, Washington, D.C.). This research protocol was approved by the Johns Hopkins University Animal Use and Care Committee arid animals were maintained in accordance to guidelines of the American Association of Laboratory Animal Care. Tumors were propagated to subsequent cohorts of mice until a sufficient number were available for drug testing.
Fine needle aspiration (FNA): FNAs on mice were performed according to standard cytopathologic practice using 10 cc syringes and 25-gauge needles. The procedure was performed under inhaled general anesthesia with isofluorane. During each FNA procedure the first pass was smeared onto glass slides and used for morphologic analysis and quality control, (DiffQuik™ and Papanicoloau), and the second through sixth passes were used to acquire viable cells.
Ex vivo assay: FNA passes used to acquire viable cells were immediately transferred into 10 ml sterile prewarmed complete RPMI-1640 culture medium containing 10% FBS, penicillin (200 ug/ml), and streptomycin (200 ug/ml). Equivalent aliquots of cells were seeded in two wells of a 6-well polypropylene microplate. […] Following treatment, non-adherent and adherent cells (collected by scraping) were pooled together in a 1.5 mL microcentrifuge tube and centrifuged at 500 g for 5 mm at 4° C. After washing with PBS, cells were lysed in 100 μL of ice-cold RLT.
RNA extraction and cDNA generation: Total RNA was extracted from cells using the RNeasy™ Mini Kit (Qiagen, Valencia, Calif.) following the manufacturer's instructions. cDNA was synthesized using iScript cDNA synthesis kit (Bio-Rad) following the manufacturer's instructions.
Low-density micro arrays (LDMA): The samples were run in a customized assay with a 384-well format (ABI, Foster City, Calif.), where the expression of 45 to 381 relevant genes can be quantitatively tested. For this example, the array was designed with 8 replicated sections containing 48 wells, with primers of one gene per well: 3 housekeeping genes (HK: UBC, HPRT, SDHA), and 45 genes of interest. 50 μL of cDNA plus 50 μL of ABI mastermix were loaded onto each of two contiguous lanes to have duplicated readouts of every sample, and were run by real-time reverse transcriptase PCR (RT-PCR). The amount of change in the target genes was calculated by comparing the threshold cycle (CT) of each gene to the geometric mean of the CTs of the HK genes. Relative expression of the target genes was estimated using the formula: relative expression=2−^ΔCT, where ΔCT=CT (target gene)−CT (average of the 3 HK genes). The experiment was run in duplicate and mean values are analyzed.
Data analysis: The expression level of each gene in the treated sample was normalized to that of the untreated control. A significant change was defined when the gene expression either increases two-fold or more (>200%), or decreases to half or more (<50%). The rest is considered uninformative.

Compound: Nc1ccn([C@@H]2O[C@H](CO)[C@@H](O)C2(F)F)c(=O)n1 [gemcitabine]
- AXIN2 gene expression (case #6): 517
- BAX gene expression (case #6): 110
- BNIP3L gene expression (case #6): 105
- BRAF gene expression (case #6): 88
- BRCA1 gene expression (case #6): 195
- CCND1 gene expression (case #6): 85
- CXCR4 gene expression (case #6): 0
- CyclinB1 gene expression (case #6): 84
- DCK gene expression (case #6): 91
- EGFR gene expression (case #6): 74
- ERCC1 gene expression (case #6): 150
- FOS gene expression (case #6): 106
- GADD45A gene expression (case #6): 75
- GLI2 gene expression (case #6): 85
- HIF1A gene expression (case #6): 102
- HIF1B gene expression (case #6): 65
- IGF1R gene expression (case #6): 82
- IGFBP3 gene expression (case #6): 34
- IHH gene expression (case #6): 122
- MAP2K2 gene expression (case #6): 98
- MAPK1 gene expression (case #6): 90
- MAPK3 gene expression (case #6): 75
- MDM2 gene expression (case #6): 81
- MSLN gene expression (case #6): 101
- NFKB1 gene expression (case #6): 83
- NOTCH1 gene expression (case #6): 60
- NOTCH2 gene expression (case #6): 79
- PLK1 gene expression (case #6): 31
- PSCA gene expression (case #6): 132
- PTCH gene expression (case #6): 153
- SHH gene expression (case #6): 116
- Survivin gene expression (case #6): 145
- TGFA gene expression (case #6): 101
- VEGF gene expression (case #6): 91
- VHL gene expression (case #6): 111
- p21 gene expression (case #6): 122
- AXIN2 gene expression (case #7): 41
- BAX gene expression (case #7): 100
- BNIP3L gene expression (case #7): 100
- BRAF gene expression (case #7): 40
- BRCA1 gene expression (case #7): 89
- CCND1 gene expression (case #7): 127
- CXCR4 gene expression (case #7): 5
- CyclinB1 gene expression (case #7): 16
- DCK gene expression (case #7): 102
- EGFR gene expression (case #7): 151
- ERCC1 gene expression (case #7): 153
- FOS gene expression (case #7): 139
- GADD45A gene expression (case #7): 96
- GLI2 gene expression (case #7): 73
- HIF1A gene expression (case #7): 115
- HIF1B gene expression (case #7): 102
- IGF1R gene expression (case #7): 28
- IGFBP3 gene expression (case #7): 78
- IHH gene expression (case #7): 81
- JUN gene expression (case #7): 80
- MAP2K2 gene expression (case #7): 131
- MAPK1 gene expression (case #7): 93
- MAPK3 gene expression (case #7): 167
- MDM2 gene expression (case #7): 180
- MSLN gene expression (case #7): 117
- NOTCH1 gene expression (case #7): 104
- NOTCH2 gene expression (case #7): 112
- PLK1 gene expression (case #7): 98
- PSCA gene expression (case #7): 91
- PTCH gene expression (case #7): 63
- RRM1 gene expression (case #7): 129
- SHH gene expression (case #7): 57
- Survivin gene expression (case #7): 85
- TGFA gene expression (case #7): 131
- VEGF gene expression (case #7): 115
- VHL gene expression (case #7): 80
- p21 gene expression (case #7): 134
- AXIN2 gene expression (case #8): 81
- BAX gene expression (case #8): 91
- BNIP3L gene expression (case #8): 106
- BRAF gene expression (case #8): 122
- BRCA1 gene expression (case #8): 59
- CCND1 gene expression (case #8): 107
- CXCR4 gene expression (case #8): 342
- CyclinB1 gene expression (case #8): 140
- DCK gene expression (case #8): 99
- EGFR gene expression (case #8): 91
- ERCC1 gene expression (case #8): 98
- FOS gene expression (case #8): 113
- GADD45A gene expression (case #8): 147
- GLI2 gene expression (case #8): 531
- HIF1A gene expression (case #8): 113
- HIF1B gene expression (case #8): 566
- IGF1R gene expression (case #8): 101
- IGFBP3 gene expression (case #8): 83
- IHH gene expression (case #8): 137
- MAP2K2 gene expression (case #8): 86
- MAPK1 gene expression (case #8): 78
- MAPK3 gene expression (case #8): 90
- MDM2 gene expression (case #8): 65
- MSLN gene expression (case #8): 98
- NOTCH1 gene expression (case #8): 118
- NOTCH2 gene expression (case #8): 122
- PLK1 gene expression (case #8): 90
- PSCA gene expression (case #8): 101
- PTCH gene expression (case #8): 203
- RRM1 gene expression (case #8): 104
- SHH gene expression (case #8): 77
- Survivin gene expression (case #8): 74
- TGFA gene expression (case #8): 107
- VEGF gene expression (case #8): 105
- VHL gene expression (case #8): 101
- p21 gene expression (case #8): 100
- AXIN2 gene expression (case #9): 106
- BAX gene expression (case #9): 92
- BNIP3L gene expression (case #9): 95
- BRAF gene expression (case #9): 93
- BRCA1 gene expression (case #9): 161
- CCND1 gene expression (case #9): 97
- CXCR4 gene expression (case #9): 649
- CyclinB1 gene expression (case #9): 115
- DCK gene expression (case #9): 117
- EGFR gene expression (case #9): 85
- ERCC1 gene expression (case #9): 91
- FOS gene expression (case #9): 83
- GADD45A gene expression (case #9): 74
- GLI2 gene expression (case #9): 99
- HIF1A gene expression (case #9): 100
- HIF1B gene expression (case #9): 107
- IGF1R gene expression (case #9): 53
- IGFBP3 gene expression (case #9): 42
- IHH gene expression (case #9): 99
- JUN gene expression (case #9): 92
- MAP2K2 gene expression (case #9): 90
- MAPK1 gene expression (case #9): 99
- MAPK3 gene expression (case #9): 106
- MDM2 gene expression (case #9): 92
- MSLN gene expression (case #9): 107
- NOTCH1 gene expression (case #9): 96
- NOTCH2 gene expression (case #9): 101
- PLK1 gene expression (case #9): 111
- PSCA gene expression (case #9): 94
- PTCH gene expression (case #9): 78
- RRM1 gene expression (case #9): 73
- SHH gene expression (case #9): 47
- Survivin gene expression (case #9): 104
- TGFA gene expression (case #9): 103
- VEGF gene expression (case #9): 87
- VHL gene expression (case #9): 110
- p21 gene expression (case #9): 83
- AXIN2 gene expression (case #10): 202
- BAX gene expression (case #10): 91
- BNIP3L gene expression (case #10): 97
- BRAF gene expression (case #10): 65
- BRCA1 gene expression (case #10): 62
- CCND1 gene expression (case #10): 69
- CXCR4 gene expression (case #10): 53
- CyclinB1 gene expression (case #10): 89
- DCK gene expression (case #10): 91
- EGFR gene expression (case #10): 50
- ERCC1 gene expression (case #10): 91
- FOS gene expression (case #10): 96
- GADD45A gene expression (case #10): 106
- GLI2 gene expression (case #10): 30
- HIF1A gene expression (case #10): 90
- HIF1B gene expression (case #10): 76
- IGF1R gene expression (case #10): 66
- IGFBP3 gene expression (case #10): 96
- IHH gene expression (case #10): 93
- JUN gene expression (case #10): 82
- MAP2K2 gene expression (case #10): 89
- MAPK1 gene expression (case #10): 79
- MAPK3 gene expression (case #10): 73
- MDM2 gene expression (case #10): 86
- MSLN gene expression (case #10): 90
- NFKB1 gene expression (case #10): 78
- NOTCH1 gene expression (case #10): 70
- NOTCH2 gene expression (case #10): 101
- PLK1 gene expression (case #10): 68
- PSCA gene expression (case #10): 108
- PTCH gene expression (case #10): 33
- RRM1 gene expression (case #10): 92
- SHH gene expression (case #10): 70
- Survivin gene expression (case #10): 64
- TGFA gene expression (case #10): 141
- VEGF gene expression (case #10): 97
- VHL gene expression (case #10): 74
- p21 gene expression (case #10): 119
